{"source": "patent US20250313559A1", "about": "(Bayer Aktiengesellschaft, priority 2024, published 2025)", "key": {"[1]": {"system": "participants with chronic kidney disease and Type-2 diabetes", "details": "cited from earlier work"}, "[2]": {"details": "cited from earlier work"}, "[3]": {"system": "natriuretic peptide levels", "details": "ARTS-HF trial, phase 2; cited from earlier work"}, "[4]": {"system": "patients with heart failure and a left ventricular ejection fraction ≥40%"}, "[5]": {"details": "No SGLT2i Use at baseline, n = 2,610"}, "[6]": {"details": "SGLT2i Use at baseline, n = 393"}}, "note": "Where two headings read alike, the source gives them in different places."}
{"smiles": "CCOc1ncc(C)c2c1[C@H](c1ccc(C#N)cc1OC)C(C(N)=O)=C(C)N2", "note": "[finerenone, (4S)-4-(4-cyano-2-methoxyphenyl)-5-ethoxy-2,8-dimethyl-1,4-dihydro-1,6-naphthyridine-3-carboxamide]", "values": [{"measurement": "cardiovascular events, including heart failure hospitalizations", "setting": "[1]", "value": "reduced"}, {"measurement": "kidney disease progression", "setting": "[1]", "value": "reduced"}, {"measurement": "tissue distribution between the heart and kidney", "setting": "[2]; compared with steroidal mineralocorticoid receptor antagonists", "value": "more balanced"}, {"measurement": "renal elimination", "setting": "[2]; in vivo", "value": "less than 1%"}, {"measurement": "treatment effects on natriuretic peptide levels", "setting": "[3]", "value": "dose dependent"}, {"measurement": "Absolute risk reduction, primary outcome", "setting": "[4]; HFimpEF (history of LVEF<40%)", "value": 9.2, "unit": "per 100 py"}, {"measurement": "Absolute risk reduction, primary outcome", "setting": "[4]; LVEF consistently 40% (no HFimpEF)", "value": 2.5, "unit": "per 100 py"}, {"measurement": "All-cause death, HR (95% CI) finerenone vs placebo", "setting": "[4]; No SGLT2i Use at baseline", "value": "0.94 (0.82, 1.07)"}, {"measurement": "Renal composite endpoint, HR (95% CI) finerenone vs placebo", "setting": "[4]; No SGLT2i Use at baseline", "value": "1.43 (0.98, 2.08)"}, {"measurement": "Total worsening HF events, RR (95% CI) finerenone vs placebo", "setting": "[4]; No SGLT2i Use at baseline", "value": "0.83 (0.71, 0.97)"}, {"measurement": "Renal composite endpoint, Rate (per 100 py)", "setting": "[4]; [5]", "value": 0.8, "unit": "per 100 py"}, {"measurement": "Total worsening HF events, Rate (per 100 py)", "setting": "[4]; [5]", "value": 13.0, "unit": "per 100 py"}, {"measurement": "All-cause death, HR (95% CI) finerenone vs placebo", "setting": "[4]; SGLT2i Use at baseline", "value": "0.90 (0.64, 1.27)"}, {"measurement": "Renal composite endpoint, Rate (per 100 py)", "setting": "[4]; [6]", "value": 1.3, "unit": "per 100 py"}, {"measurement": "Total worsening HF events, Events", "setting": "[4]; [6]", "value": 194}, {"measurement": "Total worsening HF events, Rate (per 100 py)", "setting": "[4]; [6]", "value": 22.0, "unit": "per 100 py"}, {"measurement": "Mean systolic blood pressure lower than in the placebo group", "setting": "[4]; at 6 months", "value": 3.4, "unit": "mm Hg"}, {"measurement": "All-cause death, event rate per 100 PY", "setting": "[4]; bilirubin Tertile 2 0.5-0.6 mg/dL, finerenone N = 970", "value": 6.4, "unit": "per 100 PY"}, {"measurement": "All-cause death, event rate per 100 PY", "setting": "[4]; bilirubin Tertile 3 ≥0.7 mg/dL, finerenone N = 1,009", "value": 6.6, "unit": "per 100 PY"}, {"measurement": "Hyperkalemia leading to Hospitalization - no.", "setting": "[4]; both, human, in vivo", "value": 24}, {"measurement": "Number of subjects with a treatment-emergent SAE: Acute kidney injury", "setting": "[4]; both, human, in vivo", "value": 54}, {"measurement": "Number of subjects with a treatment-emergent SAE: Anaemia", "setting": "[4]; both, human, in vivo", "value": 34}, {"measurement": "Number of subjects with a treatment-emergent SAE: Angina pectoris", "setting": "[4]; both, human, in vivo", "value": 17}, {"measurement": "Number of subjects with a treatment-emergent SAE: Angina unstable", "setting": "[4]; both, human, in vivo", "value": 38}, {"measurement": "Number of subjects with a treatment-emergent SAE: Atrial fibrillation", "setting": "[4]; both, human, in vivo", "value": 77}, {"measurement": "Number of subjects with a treatment-emergent SAE: Cardiac failure", "setting": "[4]; both, human, in vivo", "value": 18}, {"measurement": "Number of subjects with a treatment-emergent SAE: Cellulitis", "setting": "[4]; both, human, in vivo", "value": 17}, {"measurement": "Number of subjects with a treatment-emergent SAE: Chest pain", "setting": "[4]; both, human, in vivo", "value": 23}, {"measurement": "Number of subjects with a treatment-emergent SAE: Chronic obstructive pulmonary disease", "setting": "[4]; both, human, in vivo", "value": 18}, {"measurement": "Number of subjects with a treatment-emergent SAE: Fall", "setting": "[4]; both, human, in vivo", "value": 15}, {"measurement": "Number of subjects with a treatment-emergent SAE: Femur fracture", "setting": "[4]; both, human, in vivo", "value": 15}, {"measurement": "Number of subjects with a treatment-emergent SAE: Gastrointestinal haemorrhage", "setting": "[4]; both, human, in vivo", "value": 17}, {"measurement": "Number of subjects with a treatment-emergent SAE: Hyperkalemia", "setting": "[4]; both, human, in vivo", "value": 19}, {"measurement": "Number of subjects with a treatment-emergent SAE: Pneumonia", "setting": "[4]; both, human, in vivo", "value": 87}, {"measurement": "Number of subjects with a treatment-emergent SAE: Syncope", "setting": "[4]; both, human, in vivo", "value": 25}, {"measurement": "Number of subjects with treatment-emergent AE leading to treatment discontinuation: Asthenia", "setting": "[4]; both, human, in vivo", "value": 5}, {"measurement": "Number of subjects with treatment-emergent AE leading to treatment discontinuation: Diarrhoea", "setting": "[4]; both, human, in vivo", "value": 4}, {"measurement": "Number of subjects with treatment-emergent AE leading to treatment discontinuation: Dyspnoea", "setting": "[4]; both, human, in vivo", "value": 3}, {"measurement": "Number of subjects with treatment-emergent AE leading to treatment discontinuation: Hyperkalaemia", "setting": "[4]; both, human, in vivo", "value": 12}, {"measurement": "Number of subjects with treatment-emergent AE leading to treatment discontinuation: Hypotension", "setting": "[4]; both, human, in vivo", "value": 3}, {"measurement": "Number of subjects with treatment-emergent AE leading to treatment discontinuation: Nausea", "setting": "[4]; both, human, in vivo", "value": 3}, {"measurement": "Number of subjects with treatment-emergent AE leading to treatment discontinuation: Renal impairment", "setting": "[4]; both, human, in vivo", "value": 5}, {"measurement": "Proportion of patients experiencing 15% decline in eGFR", "setting": "[4]; both, human, in vivo", "value": 20.6, "unit": "%"}, {"measurement": "Subjects with a treatment-emergent SAE (%): Acute kidney injury", "setting": "[4]; both, human, in vivo", "value": 1.8, "unit": "%"}, {"measurement": "Subjects with a treatment-emergent SAE (%): Anaemia", "setting": "[4]; both, human, in vivo", "value": 1.1, "unit": "%"}, {"measurement": "Subjects with a treatment-emergent SAE (%): Angina pectoris", "setting": "[4]; both, human, in vivo", "value": 0.6, "unit": "%"}, {"measurement": "Subjects with a treatment-emergent SAE (%): Angina unstable", "setting": "[4]; both, human, in vivo", "value": 1.3, "unit": "%"}, {"measurement": "Subjects with a treatment-emergent SAE (%): Atrial fibrillation", "setting": "[4]; both, human, in vivo", "value": 2.6, "unit": "%"}, {"measurement": "Subjects with a treatment-emergent SAE (%): Cardiac failure", "setting": "[4]; both, human, in vivo", "value": 0.6, "unit": "%"}, {"measurement": "Subjects with a treatment-emergent SAE (%): Cellulitis", "setting": "[4]; both, human, in vivo", "value": 0.6, "unit": "%"}, {"measurement": "Subjects with a treatment-emergent SAE (%): Chest pain", "setting": "[4]; both, human, in vivo", "value": 0.8, "unit": "%"}, {"measurement": "Subjects with a treatment-emergent SAE (%): Chronic obstructive pulmonary disease", "setting": "[4]; both, human, in vivo", "value": 0.6, "unit": "%"}, {"measurement": "Subjects with a treatment-emergent SAE (%): Coronary artery disease", "setting": "[4]; both, human, in vivo", "value": 0.7, "unit": "%"}, {"measurement": "Subjects with a treatment-emergent SAE (%): Fall", "setting": "[4]; both, human, in vivo", "value": 0.5, "unit": "%"}, {"measurement": "Subjects with a treatment-emergent SAE (%): Femur fracture", "setting": "[4]; both, human, in vivo", "value": 0.5, "unit": "%"}, {"measurement": "Subjects with a treatment-emergent SAE (%): Gastrointestinal haemorrhage", "setting": "[4]; both, human, in vivo", "value": 0.6, "unit": "%"}, {"measurement": "Subjects with a treatment-emergent SAE (%): Hyperkalemia", "setting": "[4]; both, human, in vivo", "value": 0.6, "unit": "%"}, {"measurement": "Subjects with a treatment-emergent SAE (%): Pneumonia", "setting": "[4]; both, human, in vivo", "value": 2.9, "unit": "%"}, {"measurement": "Subjects with a treatment-emergent SAE (%): Syncope", "setting": "[4]; both, human, in vivo", "value": 0.8, "unit": "%"}, {"measurement": "Subjects with treatment-emergent AE leading to treatment discontinuation (%): Asthenia", "setting": "[4]; both, human, in vivo", "value": "(0.2%)"}, {"measurement": "Subjects with treatment-emergent AE leading to treatment discontinuation (%): Diarrhoea", "setting": "[4]; both, human, in vivo", "value": "(0.1%)"}, {"measurement": "Subjects with treatment-emergent AE leading to treatment discontinuation (%): Dyspnoea", "setting": "[4]; both, human, in vivo", "value": "(0.1%)"}, {"measurement": "Subjects with treatment-emergent AE leading to treatment discontinuation (%): Hyperkalaemia", "setting": "[4]; both, human, in vivo", "value": "(0.4%)"}, {"measurement": "Subjects with treatment-emergent AE leading to treatment discontinuation (%): Hypotension", "setting": "[4]; both, human, in vivo", "value": "(0.1%)"}, {"measurement": "Subjects with treatment-emergent AE leading to treatment discontinuation (%): Nausea", "setting": "[4]; both, human, in vivo", "value": "(0.1%)"}, {"measurement": "Subjects with treatment-emergent AE leading to treatment discontinuation (%): Renal impairment", "setting": "[4]; both, human, in vivo", "value": "(0.2%)"}, {"measurement": "Systolic blood pressure <100 mm Hg - no.", "setting": "[4]; both, human, in vivo", "value": 538}, {"measurement": "Systolic BP, mean difference", "setting": "[4]; by one month, compared with placebo", "value": "−2.8", "unit": "mm Hg"}]}
